Where “and” joins values, the source holds several entries; their conditions need not be identical. Equal values may be shown once. Read-outs that look alike come from different tables or passages of the source.
How the values were obtained:
[1] = PK/PD study: plasma Δ^9-THC levels after single-dose inhalation of Cannabis flos with the metered-dose inhaler
[2] = system: patients suffering from neuropathic pain; assay: VAS pain intensity after single-dose inhalation (PK/PD study); type: in vivo, human
Procedure: The study was used to further evaluate the pharmacodynamic effect of pulmonary delivery of Δ^9-THC on pain reduction from baseline using a 10 cm visual analog scale (VAS) pain scale (0 being no pain; and 10 being worst possible pain); for monitoring adverse effects, blood pressure and heart rate, and for estimating the degree of satisfaction with the use of the MDI on a 0-10 scale.
(§1) Pain intensity reduction was assessed as a therapeutic effect by asking participants to indicate the intensity of their current pain on a 100 mm visual analog scale (VAS) between 0 (no pain) and 100 (worst possible pain) at baseline (prior to the inhalation) and at 20 and 90 minutes following the pulmonary delivery of the pharmaceutically active agent from cannabis. Adverse effects, in the form of psychotropic symptoms, were recorded at 5, 15, 30, 60 and 120 minutes post pulmonary delivery, along with those spontaneously reported by the participants. Adverse effects were evaluated according to standardized criteria in terms of severity, frequency, duration and relationship to the study's active agent. Adverse effects were graded using the NIH Division of AIDS table for scoring severity of adult adverse experiences. Blood pressure and pulse rate were also recorded before, during and after the pulmonary delivery.
(§2) Results are reported herein as mean values±1 standard deviation (±SD). For each one of the measured effects (VAS pain intensity, systolic and diastolic blood pressure, heart rate and satisfaction score), the mean and 95% confidence interval (CI) at different time points was plotted. Differences between VAS pain intensity values and satisfaction scores, before and after inhalation, were tested by two-tailed paired Student t-test. Blood pressure and heart rate values were compared among different time points by one-way ANOVA. P-values<0.05 were accepted as significant. All statistical analyses were performed using Minitab Statistical Software, version 16.

[3] = cited from earlier work; for mean Cmax increase per mg Δ^9-THC: Huestis et al.
[4] = system: patients suffering from chronic neuropathic pain; settings: cited from earlier work; for reduction of pain intensity: vaporized 10.3 mg total available Δ^9-THC in two sessions
[5] = system: patients suffering from neuropathic pain; assay: Adverse effects, blood pressure and heart rate after single-dose inhalation (PK/PD study); type: in vivo, human; settings: for heart rate: baseline 71±12, P=0.873; for mean diastolic blood pressure: baseline 82±9, P=0.410; for mean systolic blood pressure: baseline 133±13, P=0.068; for adverse effects (overall): single inhalation, 8 patients
Procedure: as §1, §2

[6] = single inhalation, 3.08±0.02 mg total available Δ^9-THC

With `CCCCCc1cc(O)c2c(c1)OC(C)(C)[C@@H]1CCC(CO)=C[C@@H]21` [11-OH-THC, 11-hydroxy Δ^9-THC] the “plasma levels of the active metabolite” value ([1]; blood sampling 0-120 minutes after inhalation) was “No measurable plasma levels”.
In the case of `CCCCCc1cc(O)c2c(c1)OC(C)(C)[C@@H]1CCC(C)=C[C@@H]21` [Δ^9-THC, Δ9-tetrahydrocannabinol], the “inter-individual variability (CV) of peak plasma THC concentration (Cmax)” value ([1]; MDI device) is reported as 25.3%, the “increase of Cmax per mg of THC available in the cannabis used (mean)” value ([1]; pulmonary delivery with the MDI device) is reported as 12.3 ng/mL/mg and the “time of first detection in blood sample post-inhalation” value ([1]; six patients without residual plasma THC at baseline) is reported as 1 min. For the same compound, the “decrease of VAS pain intensity from baseline (difference)” value ([2]; 20 minutes after inhalation, baseline 7.5±1.4, 95% CI 2.1-4.9, P=0.001) was 3.4 points, the “VAS pain intensity versus baseline” value ([2]; 90 minutes post-dosing) was “virtually identical results as at baseline” and the “reduction of pain intensity” value [2, 6] was 45%. For the same compound, the “time within which the pain reduction reversed” value [2, 6] was no more than 90 min, the “increase of Cmax per mg of THC” value ([3]; Volcano vaporizer, Abrams et al. 2007, 2011) was 6.1 to 9.0 ng/mL/mg and the “mean Cmax increase per mg Δ^9-THC” value ([3]; after the first puff of a 1.75% Δ^9-THC cigarette) was 3.54 ng/ml per mg. The “mean Cmax increase per mg Δ^9-THC” value ([3]; after the first puff of a 3.55% Δ^9-THC cigarette) was 4.28 ng/ml per mg, the “plasma Cmax per mg of Δ^9-THC administered” value ([3]; intravenous administration, D'Souza et al. 2004) was 32.8 ng Δ^9-THC/ml plasma and 23.8 ng Δ^9-THC/ml plasma and the “inter-individual variability (CV) of Cmax” value ([3]; oral administration) was 42-115%. For the same compound, the “inter-individual variability (CV) of Cmax” value ([3]; oromucosal route of delivery) was 59-67%, the “increase of Cmax per mg of THC” value ([3]; regular smoking cigarettes, Ohlsson, Hunault, Huestis) was 0.6 to 4.6 ng/mL/mg and the “inter-individual variability (CV) of Cmax” value ([3]; smoking cigarettes) was 32-115%. For the same compound, the “time of peak plasma concentrations” value ([3]; smoking products of cannabis) was 1 to 3 min, the bioavailability ([3]; smoking route, listed as THC) was 2-56% and 2 to 56% and the “first onset of effects” value ([3]; smoking) was “about 7 minutes”. For the same compound, the “inter-individual variability (CV) of Cmax” value ([3]; vaporizer) was 47-85%, the “mean Cmax elevation” value ([4]; Ware et al. 2010, single smoke inhalation of 25±1 mg cannabis with 9.4% Δ^9-THC (2.35 mg), three times a day for 5 days) was 45 ng/mL and the “decrease in average daily pain intensity” value ([4]; Ware et al. 2010, single smoke inhalation of 25±1 mg cannabis with 9.4% Δ^9-THC, three times a day for 5 days, compared to placebo) was 11.4%. The “reduction of neuropathic pain (plateau, ceiling effect)” value ([4]; Wilsey et al. 2008, smoking 19 mg or 34 mg total available Δ^9-THC divided to 3 doses) was 45%, the “analgesic response compared with the 10.3 mg dose” value ([4]; Wilsey et al. 2013, THC dose increased to 28.2 mg) was “equianalgesic response” and the “reduction of pain intensity” value ([4]; Wilsey et al. 2013, 3 hours) was 31%. The “reduction of pain intensity” value ([4]; Wilsey et al. 2013, 5 hours) was 25%, the heart rate ([5]; 30 minutes post-inhalation) was 72±11 bpm and the “mean diastolic blood pressure” value ([5]; 30 minutes post-inhalation) was 75±10 mm Hg. The “mean systolic blood pressure” value ([5]; 30 minutes post-inhalation) was 122±10 mm Hg, the heart rate ([5]; 90 minutes post-inhalation) was 69±13 bpm and the “mean diastolic blood pressure” value ([5]; 90 minutes post-inhalation) was 81±12 mm Hg. The “mean systolic blood pressure” value ([5]; 90 minutes post-inhalation) was 121±11 mm Hg, the “time to full recovery from light headedness” value ([5]; all the other patients) was no more than 30 min and the “patients experiencing light headedness” value ([5]; first 10 minutes following inhalation, seven of eight patients) was 87.5%. For the same compound, the “adverse effects (overall)” value [5] was “minimal, reversible and well tolerated”, the “adverse effects (overall)” value ([5]; listed as THC) was “minimal, reversible and receded rapidly” and the “time to full recovery from light headedness” value ([5]; three patients) was no more than 15 min.

Source: patent US12194230B2, “Methods, devices and systems for pulmonary delivery of active agents” (priority 2014, dated 2025)
